According to publication PMC10535219, “Discovery and Potential Utility of a Novel Non-Invasive Ocular Delivery Platform” (Pharmaceutics, 2023):
Like-named read-outs stand apart in the source and are kept apart here.

What was measured:
[1] = Biodisposition of JV-DE1 eye drops in New Zealand rabbits (LC-MS/MS of plasma and ocular tissues); type: in vivo; conditions: rabbit; for Cmax / concentration at 0.5 h / concentration at 3 h / concentration at 6 h / concentration at 24 h: New Zealand; for Cmax: topical or ocular
Procedure: The in-life procedures and sample collections were performed at Joinn Laboratory Inc. (Suzhou, China). A single dose of 50 µL (120 µg) per eye of the 0.24% JV-DE1 eye drops was applied to both eyes of the animals at time 0 using a pipet. This dose was chosen based on the maximum amount deliverable as an eye drop. Blood samples were collected from all five study animals at 0 h pre-dosing. […] Plasma samples were collected before each euthanization.
Sample preparation and bioanalysis were performed at Medicilon Preclinical Research LLC (Shanghai, China). Solid ocular tissues were homogenized with 9- to 49-fold (1 g tissue in 9 mL to 49 mL, w/v) of cold homogenization buffer (50% methanol/H2O). Aliquots of plasma or aqueous humor, as well as the homogenized tissue samples, were mixed with 8-fold volumes of 200 ng/mL warfarin in a methanol solution. After vortexing and centrifuging, an aliquot of supernatants was transferred to a 96-well plate for LC-MS/MS analysis. JV-DE1 is a synthesized new chemical entity (NCE). The absence of the endogenous compound was verified by JeniVision with a battery of pre-clinical GLP and non-GLP studies, including analytical studies in monkey, dog, and rabbit tissues.
The liquid chromatography (LC) system comprised a Waters (Waters Corporation, Milford, CT, USA) Ultra Performance Liquid Chromatography (UPLC) equipped with an ACQUITY UPLC binary solvent manager, an ACQUITY UPLC sample manager, an ACQUTIY UPLC sample organizer, and an ACQUITY UPLC column heater HT. The mass spectrometric (MS) analysis was performed using a Triple Quad 6500+ (Applied Biosystems/MDS Sciex, Concord, ON, Canada) with an ESI ion source. The data acquisition and control system were created using Analyst 1.6.3 and 1.7.1 Software from Applied Biosystems/MDS Sciex. The LC/MS conditions for JV-DE1 are described in Supplementary Table S1a–c.

human IP receptor = target: human IP receptor; set-up: method as in PMID 16331286; conditions: cited from earlier work
human PAF receptor = target: human PAF receptor; set-up: method as in PMID 16331286; conditions: cited from earlier work
COX-2 = test system: COX-2; set-up: method as in PMID 22765297, PMID 24005906; conditions: COX-2 signaling cascade; cited from earlier work
IL-1β production = test system: IL-1β production; set-up: method as in PMID 29352206; conditions: human THP-1 macrophage cell line; read-out: IC50 for reducing IL-1β production; cited from earlier work
[2] = set-up: method as in PMID 35250585; conditions: once-daily intragastric administration; mice; cited from earlier work
[3] = set-up: method as in PMID 32434914; conditions: dietary supplementation; mouse model with advanced AMD pathologies; cited from earlier work
photoreceptors = test system: photoreceptors; set-up: method as in PMID 23723389; conditions: rat retinal neuronal cultures; by activating RXRs; cited from earlier work
[4] = single eye drop 120 μg/eye OD, 0.5 h
[5] = single eye drop 120 μg/eye OD, 3 h
[6] = single eye drop 120 μg/eye OD, 6 h
[7] = single eye drop 120 μg/eye OD, 24 h

## CC(C)Oc1ccc(Cc2ccc(NC3=NCCN3)cc2)cc1 [JV-DE1, 4,5-dihydro-N-[4-[[4-(1-methylethoxy)phenyl]methyl]phenyl]-1H-imadazol-2-amine]
[1]; anterior sclera, 120 ug, eye drop 120 µg/eye, read-out: Cmax in anterior sclera
  Cmax: 1790 ng/g
[1]; anterior sclera, topical, 120 µg/eye, single eye drop 120 μg/eye OD, 0.5 h, read-out: Drug in OD Tissues, Anterior sclera
  concentration at 0.5 h: 1790 ng/g
[1]; anterior sclera, topical, 120 µg/eye, single eye drop 120 μg/eye OD, 3 h, read-out: Drug in OD Tissues, Anterior sclera
  concentration at 3 h: 926 ng/g
[1]; anterior sclera, topical, 120 µg/eye, single eye drop 120 μg/eye OD, 6 h, read-out: Drug in OD Tissues, Anterior sclera
  concentration at 6 h: 1480 ng/g
[1]; anterior sclera, topical, 120 µg/eye, single eye drop 120 μg/eye OD, 24 h, read-out: Drug in OD Tissues, Anterior sclera
  concentration at 24 h: 93.2 ng/g
[1]; bulbar conjunctiva, 120 ug, eye drop 120 µg/eye, read-out: Cmax in bulbar conjunctiva
  Cmax: ~16000 ng/g
[1]; ciliary body/iris, 120 ug, eye drop 120 µg/eye, read-out: Cmax in ciliary body/iris
  Cmax: 305 ng/g
[1]; ciliary body/iris, topical, 120 µg/eye, single eye drop 120 μg/eye OD, 0.5 h, read-out: Drug in OD Tissues, Ciliary body/iris
  concentration at 0.5 h: 105 ng/g
[1]; ciliary body/iris, topical, 120 µg/eye, single eye drop 120 μg/eye OD, 3 h, read-out: Drug in OD Tissues, Ciliary body/iris
  concentration at 3 h: 305 ng/g
[1]; ciliary body/iris, topical, 120 µg/eye, single eye drop 120 μg/eye OD, 6 h, read-out: Drug in OD Tissues, Ciliary body/iris
  concentration at 6 h: 231 ng/g
[1]; ciliary body/iris, topical, 120 µg/eye, single eye drop 120 μg/eye OD, 24 h, read-out: Drug in OD Tissues, Ciliary body/iris
  concentration at 24 h: 28.9 ng/g
[1]; conjunctiva, other: eye drop applied to the eye, single eye drop 120 μg/eye OD, 0.5 h, read-out: Drug in OD Tissues, Conjunctiva
  concentration at 0.5 h: 16500 ng/g
[1]; conjunctiva, other: eye drop applied to the eye, single eye drop 120 μg/eye OD, 3 h, read-out: Drug in OD Tissues, Conjunctiva
  concentration at 3 h: 5180 ng/g
[1]; conjunctiva, other: eye drop applied to the eye, single eye drop 120 μg/eye OD, 6 h, read-out: Drug in OD Tissues, Conjunctiva
  concentration at 6 h: 566 ng/g
[1]; conjunctiva, other: eye drop applied to the eye, single eye drop 120 μg/eye OD, 24 h, read-out: Drug in OD Tissues, Conjunctiva
  concentration at 24 h: 994 ng/g
[1]; cornea, 120 ug, eye drop 120 µg/eye, read-out: Cmax in cornea
  Cmax: ~12000 ng/g
[1]; cornea, topical, 120 µg/eye, single eye drop 120 μg/eye OD, 0.5 h, read-out: Drug in OD Tissues, Cornea
  concentration at 0.5 h: 12100 ng/g
[1]; cornea, topical, 120 µg/eye, single eye drop 120 μg/eye OD, 3 h, read-out: Drug in OD Tissues, Cornea
  concentration at 3 h: 5950 ng/g
[1]; cornea, topical, 120 µg/eye, single eye drop 120 μg/eye OD, 6 h, read-out: Drug in OD Tissues, Cornea
  concentration at 6 h: 5130 ng/g
[1]; cornea, topical, 120 µg/eye, single eye drop 120 μg/eye OD, 24 h, read-out: Drug in OD Tissues, Cornea
  concentration at 24 h: 542 ng/g
[1]; plasma, other: eye drop applied to the eye, single eye drop 120 μg/eye OD, 0.5 h, read-out: Drug in plasma
  concentration at 0.5 h: 1 ng/mL
[1]; plasma, other: eye drop applied to the eye, single eye drop 120 μg/eye OD, 3 h, read-out: Drug in plasma
  concentration at 3 h: 0.3 ng/mL
[1]; plasma, other: eye drop applied to the eye, single eye drop 120 μg/eye OD, 6 h, read-out: Drug in plasma
  concentration at 6 h: 0.1 ng/mL
[1]; posterior sclera, 120 ug, eye drop 120 µg/eye, read-out: Cmax in posterior sclera
  Cmax: 240 ng/g
[1]; posterior sclera, topical, 120 µg/eye, single eye drop 120 μg/eye OD, 0.5 h, read-out: Drug in OD Tissues, Posterior sclera
  concentration at 0.5 h: 209 ng/g
[1]; posterior sclera, topical, 120 µg/eye, single eye drop 120 μg/eye OD, 3 h, read-out: Drug in OD Tissues, Posterior sclera
  concentration at 3 h: 240 ng/g
[1]; posterior sclera, topical, 120 µg/eye, single eye drop 120 μg/eye OD, 6 h, read-out: Drug in OD Tissues, Posterior sclera
  concentration at 6 h: 151 ng/g
[1]; posterior sclera, topical, 120 µg/eye, single eye drop 120 μg/eye OD, 24 h, read-out: Drug in OD Tissues, Posterior sclera
  concentration at 24 h: 64.5 ng/g
[1]; retina, 120 µg per eye, eye drop administration, read-out: retinal Cmax
  Cmax: 297 nM
[1]; retina, 120 ug, eye drop 120 µg/eye, read-out: Cmax in retina
  Cmax: 92 ng/g
[1]; retina, topical, 120 µg/eye, single eye drop 120 μg/eye OD, 0.5 h, read-out: Drug in OD Tissues, Retina
  concentration at 0.5 h: 92 ng/g
[1]; retina, topical, 120 µg/eye, single eye drop 120 μg/eye OD, 3 h, read-out: Drug in OD Tissues, Retina
  concentration at 3 h: 49.1 ng/g
[1]; retina, topical, 120 µg/eye, single eye drop 120 μg/eye OD, 6 h, read-out: Drug in OD Tissues, Retina
  concentration at 6 h: 58.9 ng/g
[1]; retina, topical, 120 µg/eye, single eye drop 120 μg/eye OD, 24 h, read-out: Drug in OD Tissues, Retina
  concentration at 24 h: 6.8 ng/g
[1]; vitreous humor, 120 ug, eye drop 120 µg/eye, read-out: Cmax in vitreous humor
  Cmax: 2.6 ng/mL
[1]; vitreous humor, topical, 120 µg/eye, single eye drop 120 μg/eye OD, 0.5 h, read-out: Drug in vitreous humor
  concentration at 0.5 h: 2.6 ng/mL
[1]; vitreous humor, topical, 120 µg/eye, single eye drop 120 μg/eye OD, 3 h, read-out: Drug in vitreous humor
  concentration at 3 h: 1.7 ng/mL
[1]; vitreous humor, topical, 120 µg/eye, single eye drop 120 μg/eye OD, 6 h, read-out: Drug in vitreous humor
  concentration at 6 h: 1.2 ng/mL
[1]; vitreous humor, topical, 120 µg/eye, single eye drop 120 μg/eye OD, 24 h, read-out: Drug in vitreous humor
  concentration at 24 h: 0.4 ng/mL
[1]; eye drop 120 µg/eye
  maximum ocular delivery efficiency (% administered dose), anterior sclera: 0.2982%
  maximum ocular delivery efficiency (% administered dose), ciliary body/iris: 0.0174%
  maximum ocular delivery efficiency (% administered dose), conjunctiva: 1.3929%
  maximum ocular delivery efficiency (% administered dose), cornea: 0.8622%
  maximum ocular delivery efficiency (% administered dose), retina: 0.0047%
  maximum ocular delivery efficiency (% administered dose), vitreous humor: 0.0023%
[1]; eye drop 120 µg/eye, throughout 0.5, 3 and 6 h post-dose
  drug concentration in the plasma: no more than 0.001 µg/mL
[1]; [4]
  % Administered Dose, Anterior sclera: 0.2982%
  % Administered Dose, Ciliary body/iris: 0.0084%
  % Administered Dose, Conjunctiva: 1.3929%
  % Administered Dose, Cornea: 0.8622%
  % Administered Dose, Posterior sclera: 0.0153%
  % Administered Dose, Retina: 0.0047%
  % Administered Dose, Vitreous humor: 0.0023%
[1]; [5]
  % Administered Dose, Anterior sclera: 0.1068%
  % Administered Dose, Ciliary body/iris: 0.0174%
  % Administered Dose, Conjunctiva: 0.4477%
  % Administered Dose, Cornea: 0.4239%
  % Administered Dose, Posterior sclera: 0.0323%
  % Administered Dose, Retina: 0.0036%
  % Administered Dose, Vitreous humor: 0.0012%
[1]; [6]
  % Administered Dose, Anterior sclera: 0.2139%
  % Administered Dose, Ciliary body/iris: 0.0137%
  % Administered Dose, Conjunctiva: 0.1288%
  % Administered Dose, Cornea: 0.3709%
  % Administered Dose, Posterior sclera: 0.0197%
  % Administered Dose, Retina: 0.0037%
  % Administered Dose, Vitreous humor: 0.0007%
[1]; [7]
  % Administered Dose, Anterior sclera: 0.0127%
  % Administered Dose, Ciliary body/iris: 0.0021%
  % Administered Dose, Conjunctiva: 0.1467%
  % Administered Dose, Cornea: 0.0254%
  % Administered Dose, Posterior sclera: 0.0088%
  % Administered Dose, Retina: 0.0004%
  % Administered Dose, Vitreous humor: 0.0004%
[1]; single eye drop 120 μg/eye OD, 24 h, LLOQ 0.0001 µg/mL
  Drug in plasma: BLQ
Human IP receptor
  Ki: 0.0005 µM
  pKi: 9.3
Human PAF receptor
  pKi: 7.9

## CC/C=C\C/C=C\C/C=C\C/C=C\C/C=C\C/C=C\CCC(=O)O [JV-MD2, cis-4,7,10,13,16,19-docosahexaenoic acid]
COX-2
  IC50: 18 µM
IL-1β production
  IC50: 4.6 µM
[2]
  laser-induced CNV formation: effectively inhibited laser-induced CNV formation
[3]
  effect on AMD pathologies: alleviated most pathologies
photoreceptors
  protective effect on photoreceptors: induced a protective effect
